Source: patent US12133843B2, “IL-8 inhibitors for use in the treatment and/or prevention of bacterial secondary infections” (priority 2017, dated 2024)

Key:
[1] = system: H1N1 influenza virus plus cigarette smoke; test: Lung inflammation exacerbation model combining H1N1 influenza infection and cigarette smoke exposure (Cs-H1N1); type: in vivo, female C57BL/6 mice; conditions: survival assay, once a day for 7 days from day of infection
Excerpt: Viral infections are among the principal causes of COPD exacerbations (Mackay, A. J. & Hurst, J. R. Immunol Allergy Clin North Am 33, 95-115; 2013). For that reason, the inventors combined influenza infection and cigarette smoke exposure (Cs) in mice in order to model COPD exacerbation. The inventors essentially exposed female C57BL/6 mice to Cs for 12 days and infect them with 1000 pfu of H1N1 influenza virus at day 7 after starting daily Cs exposure (Cs-H1N1).

[2] = system: Influenza A/WSN/33 H1N1 (IAV); test: Single IAV infection in mice, treatment with CXCR1/CXCR2 antagonist; type: in vivo, C57BL/6J mice; conditions: 10^4 PFU IAV
[3] = in vivo; cited from earlier work
[4] = system: S. pneumoniae secondary infection after IAV; type: in vivo, C57BL/6J mice
neutrophil influx = conditions: this dose and schedule (10 mg/kg oral gavage); cited from earlier work
[5] = system: Streptococcus pneumoniae (ATCC 6303 serotype 3); test: Single pneumococcal infection (pneumonia) in mice; type: in vivo, C57BL/6J mice; conditions: S. pneumoniae i.n.
[6] = 10 mg/kg twice a day for 5 days, day 5, BAL
[7] = 10 mg/kg twice a day for 5 days, day 5, BAL fluid ELISA
[8] = 10 mg/kg at 6, 12, 24, 36 h, 48 h after infection, BALF

## C[C@@H](C(=O)NS(C)(=O)=O)c1ccc(OS(=O)(=O)C(F)(F)F)cc1 [DF2156A]
[1]; Cs-H1N1 mice, LD50 of influenza virus
  Mortality rate: slightly reduced
[1]
  Mice mortality, delay (survival curve vs Cs-H1N1 group): significantly delayed

## C[C@@H](C(N)=O)c1ccc(OS(=O)(=O)C(F)(F)F)cc1 [DF2162, R(−)-2-[(4′-trifluoromethanesulfonyloxy)phenyl]propionamide]
[2]; 10 mg/kg oral gavage twice a day, day 0 to 5, vs vehicle
  Weight loss (morbidity): reduction of weight loss
[2]; 10 mg/kg twice a day for 5 days, H&E slides
  Histological analysis of lungs: bronchiolar and vascular inflammation: reduced bronchiolar and vascular inflammation
[2]; 10 mg/kg twice a day for 5 days, day 5
  Levels of MPO in the lungs: did not reduce
[2]; [6]
  Neutrophils in the airways: decreased
  Number of leukocytes recruited into the airways: decreased
[2]; [7]
  Levels of CXCL1 in the airways: decreased
  Levels of IL-6 in the airways: did not reduce
  Levels of TNF-α in the airways: decreased
[2]; 10 mg/kg twice a day for 5 days, day 5, plaque assay, vs vehicle
  Viral loads in the lungs: reduced
[2]; 10 mg/kg twice a day for 5 days, day 5, score max 18 points
  Lung injury (histopathological score): reduced the lung injury
[3]
  Half-life: long half-life
[4]; mouse, in vivo
  Levels of IL-10 in BAL fluid: decreased
[4]; mouse, in vivo, 10 mg/kg
  Mortality after secondary infection: delayed mortality
  Weight loss: reduced the weight loss
[4]; treated days 3-6 of IAV, […]
  Histopathological lung damage (overall score of lung injury): decreased such histopathological lung damage
  Levels of CXCL-1 in BAL fluid: prevented the increase
  Levels of IL-6 in BAL fluid: prevented the increase
  Levels of IL-12 in BAL fluid: prevented the increase
  Levels of TNF-α in BAL fluid: prevented the increase
  Number of bacteria in the blood: reduction in number of bacteria
  Recruitment of neutrophils into the lungs (MPO assay): decreased recruitment of neutrophils
[4]; treated days 3-6 of IAV, […], BAL
  Recruitment of neutrophils into the airways: decreased recruitment of neutrophils
[4]; treated days 3-6 of IAV, […], Bradford assay
  Levels of protein in BALF (protein leakage): decreased the levels of protein in BALF
Neutrophil influx
  Neutrophil influx in other models: significant inhibition of neutrophil influx
[5]; 10 mg/kg at 6, 12, 24, 36 h, 48 h, score max 18 points
  Lung injury (overall pathological score): reduced the lung injury
[5]; 10 mg/kg at 6, 12, 24, 36 h, 48 h after infection
  Neutrophils in the lungs: reduction in neutrophils
[5]; [8]
  Neutrophils recruited into the airways: decreased
  Number of leukocytes recruited into the airways: decreased number of leukocytes
[5]; 10 mg/kg twice a day for 2 days, followed 10 days
  Lethality: protected mice from lethality

## C[N+]1(C)[C@@H]2C[C@@H](OC(=O)C(O)(c3cccs3)c3cccs3)C[C@H]1[C@@H]1O[C@@H]12 [Tiotropium, reference compound]
[1]
  Mice mortality, delay (survival curve vs Cs-H1N1 group): no significant differences
